Experimental findings from patent publication US20160108098A1, “THERAPEUTIC PEPTIDES” (GLAXOSMITHKLINE INTELLECTUAL PROPERTY DEVELOPMENT LIMITED, priority 2013, published 2016) are described below.

Experiment [1] has as its target T1, human Neuropeptide Y receptor type 2 (Homo sapiens, UniProt P49146).
T1 construct: expressed in transfected cells; host or cells: melanophores; own knowledge: in the cited Jayawickreme protocol these are Xenopus laevis melanophores transfected with the receptor
T1 sequence (P49146 1-381): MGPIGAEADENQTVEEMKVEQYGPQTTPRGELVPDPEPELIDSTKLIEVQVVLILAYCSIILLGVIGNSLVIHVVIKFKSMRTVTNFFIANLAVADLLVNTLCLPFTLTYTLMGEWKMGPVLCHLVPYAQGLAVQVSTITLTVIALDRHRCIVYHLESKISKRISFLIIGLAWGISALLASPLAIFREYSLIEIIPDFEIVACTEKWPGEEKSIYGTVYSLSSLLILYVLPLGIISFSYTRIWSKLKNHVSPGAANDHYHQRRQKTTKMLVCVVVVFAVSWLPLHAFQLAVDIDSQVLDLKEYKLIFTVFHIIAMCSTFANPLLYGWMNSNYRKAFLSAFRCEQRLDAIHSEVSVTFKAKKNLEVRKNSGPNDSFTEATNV
The experiment in a line: melanophore assay, potency at the human Neuropeptide Y receptor type 2. Conditions: read-out: hNPY Y2 pEC50 (converted). The class given is cell-based.

A short description of experiment [2]: cumulative food intake, lean mice (Model A), BioDaQ system. The class given is in vivo. Conditions: lean C57BL/6 mice, 1 mg/kg subcutaneously, cumulative food intake after 6 h, relative to vehicle controls. The method, then:
Cumulative food intake after 6 h was determined for the PYY analogs in either lean (Model A) or diet-induced obese (DIO) (Model B) C57BL/6 mice in a BioDaQ system for continuous monitoring of food intake (Research Diets Inc., New Brunswick, N.J.). […] Mice were placed singly into the BioDaQ cages and acclimatized for a minimum of 6 days and were allowed ad libitum access to food and water. Approximately 1 hour prior to lights-out, animals were dosed subcutaneously with either vehicle (20 mM Acetate buffer, pH 4.9 or 20% DMSO in water) or analogs dissolved in vehicle (1 mg/kg) (8 animals per group). Once all animals have been dosed, feeder gates were opened providing ad-libitum access to food. Continuous food intake was monitored and collected for 15 hours. […] P-values<0.05 were considered to indicate a significant difference between treatment groups.

`CC(C)C[C@H](NC(=O)[C@H](CC(=O)O)NC(=O)[C@H](C)NC(=O)[C@H](Cc1ccc(O)cc1)NC(=O)[C@H](Cc1ccc(O)cc1)NC(=O)[C@H](CCCNC(=N)N)NC(=O)[C@H](CC(N)=O)NC(=O)[C@H](Cc1c[nH]c2ccccc12)NC(=O)[C@H](CCC(=O)O)NC(=O)[C@H](CCC(=O)O)NC(=O)[C@@H]1CCCN1C(=O)[C@H](CO)NC(=O)[C@H](C)NC(=O)[C@H](CC(=O)O)NC(=O)[C@H](CCCCN)NC(=O)CNC(=O)[C@@H]1CCCN1C(=O)[C@H](C)NC(=O)[C@H](CCC(=O)O)NC(=O)[C@@H]1CCCN1C(=O)[C@H](CCCCN)NC(=O)[C@@H]1CCCN1)C(=O)N[C@@H](CCCNC(=N)N)C(=O)N[C@@H](CCCCN)C(=O)N[C@@H](Cc1ccc(O)cc1)C(=O)N[C@@H](CC(C)C)C(=O)N[C@@H](CC(N)=O)C(=O)N[C@@H](Cc1c[nH]c2ccccc12)C(=O)N[C@H](C(=O)N[C@H](C(=O)N[C@@H](CCCNC(=N)N)C(=O)N[C@@H](CCC(N)=O)C(=O)N[C@@H](CCCNC(=N)N)C(=O)N[C@@H](Cc1ccc(O)cc1)C(N)=O)[C@@H](C)O)C(C)C` [Example 8]: in experiment [1], the EC50 was 0.02 nM. Further, in experiment [2], the “% change in food intake vs vehicle, model A” value (shortened to “% change in food intake”) was −74%.

On to `CC(C)C[C@H](NC(=O)[C@H](CO)NC(=O)[C@H](C)NC(=O)[C@H](Cc1ccc(O)cc1)NC(=O)[C@H](Cc1ccc(O)cc1)NC(=O)[C@H](CCCNC(=N)N)NC(=O)[C@H](CC(N)=O)NC(=O)[C@H](Cc1c[nH]c2ccccc12)NC(=O)[C@H](CCC(=O)O)NC(=O)[C@H](CCC(=O)O)NC(=O)[C@@H]1CCCN1C(=O)[C@H](CO)NC(=O)[C@H](C)NC(=O)[C@H](CC(=O)O)NC(=O)[C@H](CCCCN)NC(=O)CNC(=O)[C@@H]1CCCN1C(=O)[C@H](C)NC(=O)[C@H](CCC(=O)O)NC(=O)[C@@H]1CCCN1C(=O)[C@H](CCCCN)NC(=O)[C@@H]1CCCN1)C(=O)N[C@@H](CCCNC(=N)N)C(=O)N[C@@H](CCCCN)C(=O)N[C@@H](Cc1ccc(O)cc1)C(=O)N[C@@H](CC(C)C)C(=O)N[C@@H](CC(N)=O)C(=O)N[C@@H](Cc1c[nH]c2ccccc12)C(=O)N[C@H](C(=O)N[C@H](C(=O)N[C@@H](CCCNC(=N)N)C(=O)N[C@@H](CCC(N)=O)C(=O)N[C@@H](CCCNC(=N)N)C(=O)N[C@@H](Cc1ccc(O)cc1)C(N)=O)[C@@H](C)O)C(C)C` [Example 10], for which the EC50 in experiment [1] was 0.0398 nM. The “% change in food intake” value in experiment [2] is on record as −88%.

Turning to `CC(C)C[C@H](NC(=O)[C@H](CO)NC(=O)[C@H](C)NC(=O)[C@H](Cc1ccc(O)cc1)NC(=O)[C@H](Cc1ccc(O)cc1)NC(=O)[C@H](CCCNC(=N)N)NC(=O)[C@H](CC(N)=O)NC(=O)[C@H](CC(C)C)NC(=O)[C@H](CCC(=O)O)NC(=O)[C@H](CCC(=O)O)NC(=O)[C@@H]1CCCN1C(=O)[C@H](CO)NC(=O)[C@H](C)NC(=O)[C@H](CC(=O)O)NC(=O)[C@H](CCCCN)NC(=O)CNC(=O)[C@@H]1CCCN1C(=O)[C@H](C)NC(=O)[C@H](CCC(=O)O)NC(=O)[C@@H]1CCCN1C(=O)[C@H](CCCCN)NC(=O)[C@@H]1CCCN1)C(=O)N[C@@H](CCCNC(=N)N)C(=O)N[C@@H](CCCCN)C(=O)N[C@@H](Cc1ccc(O)cc1)C(=O)N[C@@H](CC(C)C)C(=O)N[C@@H](CC(N)=O)C(=O)N[C@@H](Cc1c[nH]c2ccccc12)C(=O)N[C@H](C(=O)N[C@H](C(=O)N[C@@H](CCCNC(=N)N)C(=O)N[C@@H](CCC(N)=O)C(=O)N[C@@H](CCCNC(=N)N)C(=O)N[C@@H](Cc1ccc(O)cc1)C(N)=O)[C@@H](C)O)C(C)C` [Example 31], the EC50 in experiment [1] was 0.158 nM. Also, the “% change in food intake” value in experiment [2] is −59%.
